The target of experiment [1] is D2 receptor. The conditions noted are these: competition binding experiments with [3H]spiperone; cited from earlier work.
In experiment [2] the target is hA2A. The conditions noted are these: read-out: Ki hA2A; cited from earlier work.
In experiment [3] the target is T1, human A3 receptors expressed in CHO cells (Homo sapiens, UniProt P0DMS8).
T1 sequence (P0DMS8 1-318): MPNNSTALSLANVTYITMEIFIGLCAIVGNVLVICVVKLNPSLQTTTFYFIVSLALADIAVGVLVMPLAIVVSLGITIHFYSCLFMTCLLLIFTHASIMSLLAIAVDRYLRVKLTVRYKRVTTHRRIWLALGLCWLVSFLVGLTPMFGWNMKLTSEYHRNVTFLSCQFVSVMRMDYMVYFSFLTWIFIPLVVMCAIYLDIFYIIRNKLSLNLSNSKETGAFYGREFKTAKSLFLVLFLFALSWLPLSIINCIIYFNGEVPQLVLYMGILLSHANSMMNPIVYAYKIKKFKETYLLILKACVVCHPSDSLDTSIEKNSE
On the set-up: method as in PMID 17126322. The settings on record: read-out: KD of radioligand at hA3; cited from earlier work.

The target of experiment [4] is T1, human A3 receptors expressed in CHO cells. Put plainly: competition binding at human A3 adenosine receptors ([3H]HEMADO displacement). The conditions noted are these: displacement of [3H]HEMADO, 95% confidence limits, n = 3–6, read-out: Ki hA3. As for the experimental part: (§1) A two-step procedure was adopted to prepare membrane for radioligand binding from cells stably transfected with human adenosine receptor subtypes (hA1, hA2A and hA3 expressed on CHO cells). Firstly, cell fragments and nuclei were removed by using low-speed centrifugation (1,000 g for 10 min). After that, crude membrane fraction from supernatant was then sedimented at 100,000 g for 30 min. The membrane pellet was subsequently re-suspended in the specific binding buffer, frozen in liquid nitrogen and stored at -80°C. For measurement of adenylyl cyclase activity in the hA2B receptors, one-step centrifugation procedure was used; the homogenate was sedimented for 30 min at 54,000 g. The so-obtained crude membrane pellet was re-suspended in 50 mM Tris/HCl, pH 7.4 and used for the adenylyl cyclase assay immediately.
(§2) Non-specific binding was determined using theophylline 1 mM. […] Non-specific binding was determined using N^6-R-phenylisopropyl adenosine (R-PIA) 100 μM. ^41 The binding of [^3H]HEMADO to CHO cells transfected with hA3 adenosine receptors was carried out as described earlier. […] Non-specific binding was determined using R-PIA 100 μM.
(§3) The assay mixture was then filtered through the built-in filter at the bottom of the 96-well microplate filtration system (Millipore Multiscreen MAFC) and washed three times with 200 μL of cold buffer. After addition of 20 μL of scintillator to the dried filter plates, the filter bound radioactivity was counted on a Wallac Micro-Beta counter. All Ki values were calculated by non-linear curve fitting with the program SCTFIT [45].

The target in experiment [5] is human A2A receptors expressed in CHO cells (Homo sapiens, UniProt P29274). Put plainly: competition binding at human A2A adenosine receptors ([3H]NECA displacement). The settings on record: displacement of [3H]NECA, CHO cells, 95% confidence limits, n = 3–6; read-out: Ki hA2A. As for the experimental part: as §1, §2, §3
Chain of human A2A receptors expressed in CHO cells (P29274 whole entry): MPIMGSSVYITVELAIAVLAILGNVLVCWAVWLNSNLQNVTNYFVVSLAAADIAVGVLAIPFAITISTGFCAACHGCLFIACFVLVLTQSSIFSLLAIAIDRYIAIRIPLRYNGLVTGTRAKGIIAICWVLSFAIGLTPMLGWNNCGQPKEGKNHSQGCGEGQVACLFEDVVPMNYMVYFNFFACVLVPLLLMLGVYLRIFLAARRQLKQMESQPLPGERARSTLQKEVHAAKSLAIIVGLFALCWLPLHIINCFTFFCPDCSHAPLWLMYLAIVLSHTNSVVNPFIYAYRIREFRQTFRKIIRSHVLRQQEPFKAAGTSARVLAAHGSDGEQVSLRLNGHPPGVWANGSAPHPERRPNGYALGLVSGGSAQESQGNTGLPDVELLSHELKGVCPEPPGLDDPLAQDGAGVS
The target of experiment [6] is T2, human A1 receptors expressed in CHO cells (Homo sapiens, UniProt P30542).
T2 sequence (P30542 1-326): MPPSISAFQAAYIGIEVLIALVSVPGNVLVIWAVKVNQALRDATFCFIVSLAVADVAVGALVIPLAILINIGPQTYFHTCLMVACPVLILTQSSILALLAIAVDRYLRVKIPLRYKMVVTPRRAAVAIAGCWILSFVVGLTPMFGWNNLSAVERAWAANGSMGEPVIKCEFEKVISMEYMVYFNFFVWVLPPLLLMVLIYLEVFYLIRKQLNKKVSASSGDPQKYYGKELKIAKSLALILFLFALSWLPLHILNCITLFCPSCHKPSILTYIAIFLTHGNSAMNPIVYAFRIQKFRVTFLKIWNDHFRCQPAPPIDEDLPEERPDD
Put plainly: competition binding at human A1 adenosine receptors ([3H]CCPA displacement). The conditions noted are these: displacement of [3H]CCPA, 95% confidence limits, n = 3–6, read-out: Ki hA1. As for the experimental part:
as §1, §2, §3

In experiment [7] the target is T3, human A2B receptors expressed in CHO cells (Homo sapiens, UniProt P29275).
T3 sequence (P29275 1-332): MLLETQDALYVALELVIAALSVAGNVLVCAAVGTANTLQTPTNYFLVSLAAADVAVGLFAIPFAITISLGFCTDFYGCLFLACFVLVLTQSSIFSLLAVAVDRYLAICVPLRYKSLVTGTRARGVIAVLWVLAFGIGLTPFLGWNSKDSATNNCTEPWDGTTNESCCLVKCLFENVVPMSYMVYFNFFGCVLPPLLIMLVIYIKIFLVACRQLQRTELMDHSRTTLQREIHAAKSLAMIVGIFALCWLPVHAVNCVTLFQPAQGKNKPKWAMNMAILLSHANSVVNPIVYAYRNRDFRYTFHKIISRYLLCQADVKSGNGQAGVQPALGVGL
In words: inhibition of NECA-stimulated adenylyl cyclase activity at hA2B.
Protocol: The membranes were incubated with about 150,000 cpm of [α-^32P]adenosine triphosphate ([α-^32P]ATP) and test compounds in different concentrations for 20 min. A non-linear regression analysis was applied to calculate the IC50 of the adenylyl cyclase activity assay. From the IC50 values, Ki values were then calculated using the Cheng and Prusoff equation [46].

Structures can show the parent of a compound that is named as a salt.

Consider `CCCN(CCc1ccccc1)C1CCc2c(O)cccc2C1` (racemic) [(±)-PPHT.HCl, (±)-2-(N-phenethyl-N-propyl)amino-5-hydroxytetralin hydrochloride], for which, in experiment [1], the Ki is 13.3 nM. Turning to `CCn1c(=O)c2c(nc(/C=C/c3ccc(OC)c(OC)c3)n2C)n(CC)c1=O` [KW-6002], the Ki in experiment [2] was 12 nM.

As for `CCCCC#Cc1nc(NC)c2ncn([C@@H]3O[C@H](CO)[C@@H](O)[C@H]3O)c2n1` [[^3H]HEMADO, [^3H]-2-hexyn-1-yl-N^6-methyladenosine], in experiment [3], the Kd is 1.1 nM. Consider `Cc1cc(C)nc(N2CCN(C(=O)c3cc4cc(F)ccc4[nH]3)CC2)n1` [Compound 22, 2‐[4‐(4,6‐Dimethylpyrimidin‐2‐yl)piperazine‐1‐carbonyl]‐5‐fluoro‐1H‐indole], for which the Ki in experiment [4] is greater than 100000 nM; in experiment [5] it was greater than 100000 nM; in experiment [6], greater than 100000 nM; in experiment [7], greater than 20000 nM.

(Values after publication PMC5755735, “Discovery of indolylpiperazinylpyrimidines with dual-target profiles at adenosine A2A and dopamine D2 receptors for Parkinson's disease treatment” (PLoS ONE, 2018).)
